Data as given in PubChem BioAssay AID179 (DTP/NCI, 2004).
Activity calls are given as the source filed them.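 Rule for the calls: active = compounds giving half or more protection of infected cells from virus-caused growth loss, again on retest; inactive = the rest.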

Tested on: CEM cells HIV-1 protection, formazan growth assay
Experiment: NCI AIDS Antiviral Assay
Conditions: for IC50: measured here: growth of uninfected CEM cells
Procedure: The ability of compounds to protect human CEM cells from HIV-1 infection is measured as a screen for new compounds capable of inhibiting the HIV virus. Five concentrations of drug were tested on uninfected and infected cells and cell growth was measured using a soluble formazan assay. […] Compounds that provided at least 50% protection were retested. Compounds that provided at least 50% protection on retest were listed as moderately active. Compounds that reproducibly provided 100% protection were listed as confirmed active. […] Note that the inability to provide protection could be due to toxicity.

Row | SMILES | EC50 [µM] | IC50 [µM] | outcome
1 | CCC(C(=O)OC)C1CCN(C)C(=O)C12CO2 (configuration not stated) | > 1020 | > 1020 | –
2 | Nc1ncnc2c1ncn2C1C[C@H](O)[C@]2(CO)C[C@H]12 (some centres not stated) | > 50.1 | > 50.1 | –
3 | COc1cc2c(c(OC)c1OC)-c1oncc1CC2 | 166 | 282 | –
4 | CC(C)C1=C(O)C2=C(C(=O)C1=O)C1(C)CCCC(C)(C)C1C(O)C2OC=O (configuration not stated) | > 200 | 10.2 | –
5 | COC(=O)CC1C(COC(C)=O)OC(n2ccc(=O)[nH]c2=O)C1OC(C)=O (configuration not stated) | 0.537 | > 200 | –
6 | CC(=O)C1C(=O)C(=O)N(c2cccc(C)c2C)C1=O (configuration not stated) | > 200 | > 200 | –
7 | CC1(C)CC(=O)C(CC2C(=O)CC(C)(C)CC2=O)C(=O)C1 | > 200 | > 200 | –
8 | CCOC(=O)c1ccc(CS(=O)c2ccc(N)cc2)c([N+](=O)[O-])c1 (configuration not stated) | > 102 | 26.9 | –
9 | COc1cc(/C=C/C(=N\NC(N)=S)c2sc(NNC(C)=O)nc2C)ccc1O | > 77.6 | 69.2 | –
10 | CCCCCCC(O)CC[C@H]1CCC[C@@H](C)N1 (some centres not stated) | – | – | inactive
11 | O=C1C2N=NNC2C(=O)N1c1ccccc1 (configuration not stated) | > 200 | > 200 | –
12 | C(=C/c1nnnn1-c1ccccc1)/Nc1ccccc1 | > 200 | 26.3 | –
13 | CCN(C(=S)N[C@H](C(=O)N[C@@H](C)C(=O)OC)C(C)C)c1ccccc1 | 0.575 | 29.5 | –
14 | COc1ccc(C(c2c(O)c3ccccc3oc2=O)N2CCCC2)c(OC)c1 (configuration not stated) | > 200 | 95.5 | –
15 | Cc1cccc(N=Cc2ccc(N(CCC#N)S(=O)(=O)c3ccccc3)cc2C)c1 | > 224 | 145 | –
16 | CCOC(=O)CCC1(C(=O)OC)CCCC1=O (configuration not stated) | > 1020 | > 1020 | –
17 | CC(C)(C)N=c1n(C(C)(C)C)oc(=O)n1C(C)(C)C | > 151 | 135 | –
18 | Cc1ccn2c(=O)cc(CN3CCOCC3)nc2c1 | > 200 | > 200 | –
19 | CC1=C2C(=O)c3ccccc3C2=C(C)S(=O)(=O)O1 | > 955 | 832 | –
20 | CN(C)CCCNC(=O)c1cc(NC(=O)c2cc(NC(=O)c3cc(NC(=O)c4ccccc4C(=O)O)cn3C)cn2C)cn1C | > 200 | > 200 | –
21 | Nc1ccc2nc(NCc3ccc(F)cc3)cnc2c1 | > 933 | 83.2 | –
22 | c1ccc(CN2CCc3[nH]c4ccccc4c3C2)cc1 | > 200 | 21.9 | –
23 | c1cc2nnc1SCCSCCSCCSc1ccc(nn1)SCCSCCSCCS2 | > 200 | > 200 | –

Row | SMILES | EC50 [µM] | IC50 [µM] | outcome
24 | CCOP(=O)(OCC)C1CC(n2cc(C)c(=O)[nH]c2=O)OC1CO (configuration not stated) | > 200 | 182 | –
25 | COc1ccc2nc3c4ccccc4scc-3c2c1 | > 200 | 0.295 | –
26 | NCCOB(c1ccccc1)c1ccccc1 | > 200 | 38.9 | –
27 | COC1(OC)CCC2(C)OC(c3ccccc3)C1O2 (configuration not stated) | – | – | inactive
28 | Fc1c(F)c(F)c2c(c1F)CSc1nc3ccccc3n1-2 | > 200 | > 200 | –
29 | CCOC(=O)C1=C(OC(OCC)C([Se]c2ccccc2)C(C)C)CCC1 (configuration not stated) | > 23.4 | > 23.4 | –
30 | C/C(CC1(O)C(=O)Nc2ccccc21)=N\O (configuration not stated) | > 200 | > 200 | –
31 | O=S(=O)(Oc1cccc2ccccc12)C(F)(F)F | > 200 | 120 | –
32 | COC(=O)C(Cc1ccccc1)NS(=O)(=O)c1ccc(-c2c3nc(c(-c4ccc(S(=O)(=O)NC(Cc5ccccc5)C(=O)OC)cc4)c4ccc([nH]4)c(-c4ccc(S(=O)(=O)NC(Cc5ccccc5)C(=O)OC)cc4)c4nc(c(-c5ccc(S(=O)(=O)NC(Cc6ccccc6)C(=O)OC)cc5)c5ccc2[nH]5)C=C4)C=C3)cc1 (configuration not stated) | > 126 | > 126 | –
33 | CC1(O)CC2C(CC1SCCO)C2(C)C (configuration not stated) | > 1070 | 631 | –
34 | Cc1ccc(Cc2nn(C)c(=O)n2-n2cccc2)cc1 | > 200 | 102 | –
35 | COc1cc2c(cc1OC)CCN=C2 | – | – | inactive
36 | O=C1Cc2c([nH]c3c(Cl)cccc23)-c2ccccc2N1 | > 200 | 11.5 | –
37 | O=C(CN1CCN(C(=O)OCc2ccccc2)CCN(CC(=O)N2CCCCC2)CCN(C(=O)OCc2ccccc2)CC1)N1CCCCC1 | > 200 | 10.2 | –
38 | CC#CC(O)(C(=O)OC1CC2CCC(C1)N2C)C1CCCC1 (configuration not stated) | > 200 | > 200 | –
39 | CCCC(C)(COC(N)=O)COC(=O)NC1CC1 (configuration not stated) | > 200 | > 200 | –
40 | CCOC(=O)c1cccnc1C(OC(C)=O)OC(C)=O | > 891 | 158 | –
41 | COc1ccc(-n2c(N)c(C#N)c3c(c2=S)CCC3)cc1 | > 316 | > 316 | –
42 | CCOC(=O)/C(O)=C/c1nc2ccccc2nc1C | > 46.8 | > 46.8 | –
43 | Clc1ccc(CSc2ccc3nncc(SCc4ccc(Cl)cc4Cl)c3c2)c(Cl)c1 | > 29.5 | > 29.5 | –
44 | CC1(C)SCc2nc3ccccc3n21 | > 200 | 186 | –
45 | C[C@H]1CC[C@@H]2[C@@H](C)[C@H]3[C@H](C[C@H]4[C@@H]5CC=C6C[C@@H](O)CC[C@]6(C)[C@H]5C[C@H](O)[C@]34C)N2C1 | – | – | inactive
46 | CCOC(=O)NC(=S)NN(C)C1=NCC(C)(C)S1 | > 200 | > 200 | –

Row | SMILES | EC50 [µM] | IC50 [µM] | outcome
47 | Cc1ccc(C)c(NC(=O)CCc2nc(=S)[nH][nH]2)c1 | – | – | inactive
48 | Clc1cc(Cl)c2nncc(N3CC3)c2c1 | – | – | inactive
49 | COc1cc(-c2nnc3n2NC=C(C(=O)O)S3)cc(OC)c1OC | > 257 | > 257 | –
50 | COc1ccc2c(c1)OCC(O)(c1ccccc1)C2O (configuration not stated) | > 200 | > 200 | –
51 | O=C(O)[C@@H]1CCCC[C@@H]1C(=O)N(C1CCCCC1)C1CCCCC1 | > 77.6 | > 77.6 | –
52 | COC(=O)NC1(NC(=O)OC)NC(=O)c2cc(OC)c(OC)cc2N1 | > 200 | 12.9 | –
53 | O=C(/C=C/c1ccc(Cl)cc1)c1ccncc1 | > 40.7 | 38 | –
54 | COC(=O)CN1C(=O)c2cccc3cc(N)cc(c23)C1=O | > 200 | > 200 | –
55 | O=C(/C=C/c1ccc(OCCCOc2ccc(/C=C/C(=O)c3ccc(Cl)cc3)cc2)cc1)c1ccc(Cl)cc1 | > 12.9 | > 12.9 | –
56 | CCN(CC)CC(=O)Nc1ccc(Cl)cc1C(O)c1ccccc1 (configuration not stated) | > 200 | 120 | –
57 | CC12C=CC(C)(C3C(=O)C4C(C(=O)C31)C1(C)C=CC4(C)S1=O)S2=O (configuration not stated) | 21.9 | 60.3 | –
58 | CC(=O)OCCCOCn1cc(C)c(=O)[nH]c1=O | > 200 | > 200 | –
59 | CC(C)(C)[Si](C)(C)OCC1CCC(n2cnc3c(NC(=O)c4ccccc4)ncnc32)O1 (configuration not stated) | – | – | inactive
60 | [N-]=[N+]=N[C@H]1C[C@@H](CO)O[C@H]1n1cnc2c(N)ncnc21 | – | – | inactive
61 | CCCCN(CCCC)NC(=S)Nc1ccccc1 | > 35.5 | > 35.5 | –
62 | Cn1cnc([N+](=O)[O-])c1Sc1nccc(=O)[nH]1 | > 977 | > 200 | –
63 | Cc1ccc(SS(=O)(=O)c2ccc([N+](=O)[O-])cc2)cc1 | > 60.3 | 40.7 | –
64 | CCOC(=O)C12CN(C34CC5CC(CC(C5)C3)C4)CC(C(=O)OCC)(C1=O)C(c1ccccc1)OC2c1ccccc1 (configuration not stated) | > 30.9 | 13.5 | –
65 | CN1CC(c2ccccc2)=Cc2c1ccc(N)c2N=N | > 200 | > 200 | –
66 | O=C(O)CN1CCN2CCCCCCCCN(CC1)CCN(CC(=O)O)CC2 | > 200 | 13.2 | –
67 | CCOC(=O)c1ccc(-c2cccs2)[nH]1 | > 200 | 38.9 | –
68 | C=C(C(N)=O)c1ccc([N+](=O)[O-])o1 | > 200 | 3.47 | –
69 | COc1ccc(-n2[nH]c3c(cnc4ccccc43)c2=O)cc1 | > 200 | > 200 | –

Row | SMILES | EC50 [µM] | IC50 [µM] | outcome
70 | CN1C(=S)N2CCCCCCCC2C(C#N)=C1N (configuration not stated) | > 200 | > 200 | –
71 | OCC(O)C(OC1OC(CO)C(O)C(O)C1O)c1nn(-c2ccccc2)c2nc3cc(Cl)ccc3nc12 (configuration not stated) | – | – | inactive
72 | CCCCCCNC(=O)Sc1ccccc1C(=O)N[C@H](C)C(N)=O | 0.141 | 107 | –
73 | CCN(CC)CCN(CC)CC(=O)Nc1ccccc1Cl | > 200 | > 200 | –
74 | C=CCSC[C@H](NC(=O)COc1ccccc1)C(=O)NC(C(=O)OCc1ccc([N+](=O)[O-])cc1)=C(C)C | > 25.7 | > 25.7 | –
75 | COC(=O)C(Cc1cccc(OC)c1)NC(=O)OC(C)(C)C (configuration not stated) | – | – | inactive
76 | O=C1CSC(Cc2nc3ccccc3o2)=N1 | > 200 | 4.79 | –
77 | Cc1[nH]nc2c1NC(=O)OC(C)C2 (configuration not stated) | 132 | 490 | –
78 | Nc1nc2c(ncn2CC2CCOC2=O)c(=O)[nH]1 (configuration not stated) | – | – | inactive
79 | O=c1c2cc(-c3ccccc3)sc2nc2n1N=C(c1ccccc1)CS2 | > 200 | > 200 | –
80 | COc1ccccc1CNCCCCCCNCCSSCCNCCCCCCNCc1ccccc1OC | > 200 | 57.5 | –
81 | O=C(O)CSCCCCSCC(=O)O | > 1050 | > 1050 | –
82 | C(=N\NC1=NCCCN1)/c1ccc2ccccc2c1 | > 200 | 8.32 | –
83 | CCOC(=O)C1CCCCc2sc(N)c(C#N)c21 (configuration not stated) | > 200 | 191 | –
84 | CCc1c(O)sc2c(c1=O)C(=NCC(C)C)CC(C)(C)N2 | > 32.4 | > 32.4 | –
85 | CC(=O)Nc1ccc(NCC(=O)Nn2cnc3ccc(S(=O)(=O)Nc4ccc(NC(C)=O)cc4)cc3c2=O)cc1 | > 200 | 191 | –
86 | CC1(C)OCC(C2OC(N3O[C@H](CI)C[C@@H]3c3ccccc3)C3OC(C)(C)OC23)O1 (some centres not stated) | 138 | > 200 | –
87 | S=C1C=C(c2ccccc2)Sc2ccccc2N1 | > 200 | 60.3 | –
88 | Cc1ccc(S(=O)(=O)Nn2c(O)c(C#N)c(-c3ccc(N(C)C)cc3)c(C#N)c2=O)cc1 | > 200 | > 200 | –
89 | C=CCOc1ccc2c(C)cc(=O)oc2c1C | > 112 | 102 | –
